Molecules are shown by their SMILES.

Experiment [1] concerns NCI-H460. The experiment in a line: Antiproliferative activity against human NCI-H460 cells harboring wildtype DOT1L (unknown origin) (1 to 416 residues) assessed as inhibition of cell proliferation incubated for 72 hrs by CCK-8 assay. It counts as functional, cell-based. The settings on record: NCI-H460, 72 h. A general note: Formazan colour is commonly taken as a measure of viable cells.

Experiment [2] deals with NCI-H460. The experiment in a line: Antiproliferative activity against human NCI-H460 cells harboring DOT1L R231Q mutant (unknown origin) (1 to 416 residues) assessed as inhibition of cell proliferation incubated for 72 hrs by CCK-8 assay. The experiment is classed as functional, cell-based. The settings on record: NCI-H460, 72 h.
For experiment [3], the system named is NCI-H460. The experiment in a line: Antitumor activity against human NCI-H460 cells harboring DOT1L R231Q OE mutant xenografted in male BALB/c-nu mouse model assessed as tumor growth inhibition at 20 mg/kg, ip administered five times a week for 3 weeks relative to control. Conditions: NCI-H460, 504 h, read-out: TGI. It counts as functional. In general terms: A xenograft is tissue or cells of one species grown in another, often human tumour cells in immunodeficient mice.

For experiment [4], the system named is NCI-H460. The experiment in a line: Antiproliferative activity against human NCI-H460 cells harboring DOT1L R231Q mutant assessed as inhibition of cell proliferation incubated for 72 hrs by CCK-8 assay. The experiment is classed as functional, cell-based. The settings on record: NCI-H460, 72 h.

A word on the IC50: it is the concentration that gives 50% inhibition. `CC(C)N(CCCNC(=O)Nc1ccc(C(C)(C)C)cc1)C[C@H]1O[C@@H](n2cc(Br)c3c(N)ncnc32)[C@H](O)[C@@H]1O`: the IC50 is 8.83 µM in the experiment on NCI-H460 [1] and 36 µM with NCI-H460 [2].
As for `CC(C)N(CCCNC(=O)Nc1ccc(C(C)(C)C)cc1)CC1(O)CCN(c2ncnc3[nH]ccc23)C1` (stereo unspecified), the IC50 with NCI-H460 [1] stood at 54.4 µM; in the experiment with NCI-H460 [2], 83.9 µM.
As for `CC(C)N(CCCNC(=O)Nc1ccc(C(C)(C)C)cc1)CC1(O)CCN(c2nc(N)nc3[nH]cnc23)C1` (stereo unspecified), the IC50 with NCI-H460 [1] was 25.6 µM; in the experiment with NCI-H460 [2], 35.7 µM.
The corresponding values for `CC(C)N(CCCNC(=O)Nc1ccc(C(C)(C)C)cc1)CC1CCCN(c2ncnc3[nH]cnc23)C1` (stereo unspecified) are 64.7 µM and 66.5 µM.
`CN(CCCNC(=O)Nc1ccc(C(C)(C)C)cc1)CC1(O)CCN(c2nc(Cl)nc3[nH]ncc23)C1` (stereo unspecified): the IC50 in the experiment on NCI-H460 [1] stood at 8.51 µM; with NCI-H460 [2], 21.8 µM.
For the compound `CC(C)(C)C(=O)Nc1ccc2[nH]c(CN3CCC(N(CCCN4CCOCC4)CC4CCCN(c5nc(Cl)nc6[nH]cnc56)C4)CC3)nc2c1` (stereo unspecified), the IC50 in the experiment on NCI-H460 [1] is above 100 µM; with NCI-H460 [2], 48.1 µM.
In the same order, the values of `CN(CCCNC(=O)Nc1ccc(C(C)(C)C)cc1)CC1CCCN(c2cc(C#N)ccn2)C1` (stereo unspecified) are above 100 µM and 91.2 µM.
Turning to `CC(C)(C)c1ccc(NC(=O)NCCCN(CCC(=O)N2CCOCC2)CC2(O)CCN(c3nc(Cl)nc4[nH]cnc34)C2)cc1` (stereo unspecified), the IC50 with NCI-H460 [1] turned out to be 53.9 µM; in the experiment with NCI-H460 [2] it was 38.4 µM.
With `CC(C)(C)c1ccc(NC(=O)NCCCN(CCC(=O)N2CCSCC2)CC2(O)CCN(c3ncnc4[nH]cnc34)C2)cc1` (stereo unspecified), the IC50 in the experiment with NCI-H460 [1] was above 100 µM; in the experiment with NCI-H460 [2] it was 89.6 µM.
With `CN(CCCNC(=O)Nc1ccc(C(C)(C)C)cc1)CC1(O)CCN(c2nc(Cl)nc3[nH]cnc23)C1` (stereo unspecified), the IC50 in the experiment on NCI-H460 [1] was 6.46 µM; with NCI-H460 [2], 17.6 µM.
For `CC(C)(C)c1ccc(NC(=O)NCCCN(CCO)CC2(O)CCN(c3ncnc4[nH]cc(Br)c34)C2)cc1` (stereo unspecified), the figures for the IC50 in the experiment on NCI-H460 [1] and in the experiment on NCI-H460 [2] were 41.3 µM and 47.1 µM, respectively.
With `CC(C)(C)c1ccc(NC(=O)NCCCN(CCCN2CCOCC2)CC2(O)CCN(c3nc(Cl)nc4[nH]ncc34)C2)cc1` (stereo unspecified), the IC50 is 18.9 µM in the experiment with NCI-H460 [1] and 7.15 µM with NCI-H460 [2].
The corresponding values for `CC(C)(C)c1ccc(NC(=O)NCCCN(CCC(=O)N2CCSCC2)CC2(O)CCN(c3nc(Cl)nc4[nH]ncc34)C2)cc1` (stereo unspecified) are 44 µM and 16.2 µM.
The corresponding values for `CC(C)(C)c1ccc(NC(=O)NCCCN(CCCN2CCOCC2)CC2(O)CCN(c3ncnc4[nH]cnc34)C2)cc1` (stereo unspecified) are above 100 µM and 73.1 µM.
On to `CC(C)(C)C(=O)Nc1ccc2[nH]c(CN3CCC(N(CCCN4CCOCC4)CC4CCCN(c5cc(C#N)ccn5)C4)CC3)nc2c1` (stereo unspecified), for which the IC50 is above 100 µM in the experiment with NCI-H460 [1] and 85.5 µM with NCI-H460 [2].
In the same order, the values of `CC(C)(C)c1ccc(NC(=O)NCCCN(CCO)CC2(O)CCN(c3nc(N)nc4[nH]cnc34)C2)cc1` (stereo unspecified) are 31.2 µM and 52.6 µM.
The corresponding values for `CC(C)(C)C(=O)Nc1ccc2[nH]c(CN3CCC(N(CCCN4CCOCC4)CC4CCCN(c5nc(Cl)nc6[nH]ncc56)C4)CC3)nc2c1` (stereo unspecified) are above 100 µM and 52 µM.
For `CC(C)N(CCCNC(=O)Nc1ccc(C(C)(C)C)cc1)CC1(O)CCN(c2ncnc3[nH]cc(Br)c23)C1` (stereo unspecified), the IC50 in the experiment with NCI-H460 [1] is 35.2 µM; with NCI-H460 [2] it was 45.3 µM.
As to `CC(C)(C)c1ccc(NC(=O)NCCCN(CCCN2CCOCC2)CC2(O)CCN(c3ncnc4[nH]cc(Br)c34)C2)cc1` (stereo unspecified), the IC50 with NCI-H460 [1] is 45.6 µM; in the experiment with NCI-H460 [2] it was 36.5 µM.
The corresponding values for `CC(C)(C)c1ccc(NC(=O)NCCCN(CCC(=O)N2CCOCC2)CC2(O)CCN(c3ncnc4[nH]cnc34)C2)cc1` (stereo unspecified) are above 100 µM and 95.5 µM.
Turning to `CN(CCCNC(=O)Nc1ccc(C(C)(C)C)cc1)CC1CCCN(C(=O)c2ccc[nH]c2=O)C1` (stereo unspecified), the figures for the IC50 with NCI-H460 [1] and in the experiment on NCI-H460 [2] were 66.3 µM and 83.2 µM, respectively.
Consider `CN(CCCNC(=O)Nc1ccc(C(C)(C)C)cc1)CC1(O)CCN(c2nc(Cl)nc3ccsc23)C1` (stereo unspecified), for which the figures for the IC50 in the experiment with NCI-H460 [1] and in the experiment on NCI-H460 [2] were 27.7 µM and 50.8 µM, respectively.
As for `CC(C)N(CCCNC(=O)Nc1ccc(C(C)(C)C)cc1)CC1(O)CCN(c2nc(Cl)nc3[nH]ccc23)C1` (stereo unspecified), the IC50 was determined as 17.6 µM in the experiment on NCI-H460 [1] and 25.6 µM in the experiment with NCI-H460 [2].
For `CN(CCCNC(=O)Nc1ccc(C(C)(C)C)cc1)CC1CCCN(c2ncnc3[nH]cnc23)C1` (stereo unspecified), the IC50 in the experiment on NCI-H460 [1] was 68.6 µM; in the experiment with NCI-H460 [2], 64.3 µM.
In the same order, the values of `CC(C)N(CCCNC(=O)Nc1ccc(C(C)(C)C)cc1)CC1(O)CCN(c2nc(Cl)nc3sccc23)C1` (stereo unspecified) are 7.56 µM and 16 µM.
In the same order, the values of `COC(=O)CCN(CCCNC(=O)Nc1ccc(C(C)(C)C)cc1)CC1(O)CCN(c2nc(Cl)nc3[nH]cnc23)C1` (stereo unspecified) are 72.6 µM and 30.9 µM.
Take `CC(C)N(CCCNC(=O)Nc1ccc(C(C)(C)C)cc1)CC1CCCN(c2cc(C#N)ccn2)C1` (stereo unspecified): the IC50 in the experiment on NCI-H460 [1] and in the experiment on NCI-H460 [2] was above 100 µM each time.
As for `CC(C)N(CCCNC(=O)Nc1ccc(C(C)(C)C)cc1)CC1(O)CCN(c2nc(Cl)nc3[nH]ncc23)C1` (stereo unspecified), the IC50 in the experiment with NCI-H460 [1] worked out at 6.47 µM; in the experiment on NCI-H460 [2], 14.5 µM.
On to `CN(CCCNC(=O)Nc1ccc(C(C)(C)C)cc1)CC1CCCN(C(=O)c2cnccn2)C1` (stereo unspecified), for which the IC50 with NCI-H460 [1] and with NCI-H460 [2] was above 100 µM in each case.
For the compound `CN(CCCNC(=O)Nc1ccc(C(C)(C)C)cc1)CC1CCCN(c2nc(Cl)nc3[nH]cnc23)C1` (stereo unspecified), the IC50 in the experiment on NCI-H460 [1] came to 23.3 µM; in the experiment on NCI-H460 [2], 37.7 µM.
For the compound `CC(C)(C)C(=O)Nc1ccc2[nH]c(CN3CCC(N(CCCN4CCOCC4)CC4CCCN(c5ncnc6[nH]cnc56)C4)CC3)nc2c1` (stereo unspecified), the IC50 in the experiment on NCI-H460 [1] was above 100 µM; in the experiment with NCI-H460 [2], 73.8 µM.
In the same order, the values of `CN(CCCNC(=O)Nc1ccc(C(C)(C)C)cc1)CC1(O)CCN(c2ncnc3[nH]cc(Br)c23)C1` (stereo unspecified) are 38.7 µM and 40.6 µM.
As to `CC(C)(C)C(=O)Nc1ccc2nc(CN3CCC(N(CCCN4CCOCC4)C[C@H]4O[C@@H](n5cnc6c(N)ncnc65)[C@H](O)[C@@H]4O)CC3)[nH]c2c1`, the inhibition in vivo at 20 mg/kg in the experiment with NCI-H460 [3] was 54.4%. For the same compound, the IC50 in the experiment on NCI-H460 [4] was determined as 6.18 µM.
As for `CC(C)(C)c1ccc(NC(=O)NCCCN(CCC(=O)N2CCSCC2)CC2(O)CCN(c3nc(Cl)nc4[nH]cnc34)C2)cc1` (stereo unspecified), the values for the IC50 with NCI-H460 [1] and with NCI-H460 [2] were 64.5 µM and 23.2 µM, respectively.
On to `COC(=O)CCN(CCCNC(=O)Nc1ccc(C(C)(C)C)cc1)CC1(O)CCN(c2ncnc3[nH]cnc23)C1` (stereo unspecified), for which the IC50 in the experiment with NCI-H460 [1] and in the experiment on NCI-H460 [2] was above 100 µM each time.
With `CC(C)N(CCCNC(=O)Nc1ccc(C(C)(C)C)cc1)CC1(O)CCN(c2nc(Cl)nc3[nH]cnc23)C1` (stereo unspecified), the IC50 in the experiment with NCI-H460 [1] amounted to 5.33 µM; in the experiment with NCI-H460 [2], 13.8 µM.
As to `CC(C)(C)c1ccc(NC(=O)NCCCN(CCCN2CCOCC2)CC2(O)CCN(c3nc(Cl)nc4[nH]cnc34)C2)cc1` (stereo unspecified), the IC50 with NCI-H460 [1] came out at 31.4 µM; with NCI-H460 [2], 9.59 µM.
In the case of `CC(C)N(CCCNC(=O)Nc1ccc(C(C)(C)C)cc1)CC1CCCN(C(=O)c2ccc[nH]c2=O)C1` (stereo unspecified), the figures for the concentration for half-maximal inhibition (IC50) in the experiment on NCI-H460 [1] and in the experiment on NCI-H460 [2] were 75.7 µM and 81.2 µM, respectively.
In the same order, the values of `CC(C)(C)C(=O)Nc1ccc2[nH]c(CN3CCC(N(CCCN4CCOCC4)CC4CCCN(C(=O)c5cnccn5)C4)CC3)nc2c1` (stereo unspecified) are above 100 µM and above 100 µM.
Consider `CC(C)(C)c1ccc(NC(=O)NCCCN(CCCN2CCOCC2)CC2(O)CCN(c3nc(N)nc4[nH]cnc34)C2)cc1` (stereo unspecified), for which the figures for the IC50 with NCI-H460 [1] and in the experiment on NCI-H460 [2] were above 100 µM and 29.6 µM, respectively.
As for `COC(=O)CCN(CCCNC(=O)Nc1ccc(C(C)(C)C)cc1)CC1(O)CCN(c2nc(Cl)nc3[nH]ncc23)C1` (stereo unspecified), the IC50 in the experiment with NCI-H460 [1] is 61.7 µM; in the experiment with NCI-H460 [2] it was 28.4 µM.
Take `CN(CCCNC(=O)Nc1ccc(C(C)(C)C)cc1)CC1(O)CCN(c2nc(N)nc3[nH]cnc23)C1` (stereo unspecified): the IC50 in the experiment on NCI-H460 [1] came to 23.8 µM; in the experiment with NCI-H460 [2], 44.9 µM.
The corresponding values for `CC(C)N(CCCNC(=O)Nc1ccc(C(C)(C)C)cc1)CC1CCCN(c2nc(Cl)nc3[nH]cnc23)C1` (stereo unspecified) are 21.8 µM and 38.7 µM.
